In PubChem BioAssay AID248 (DTP/NCI, 2004):
Inconclusive results and toxic doses are left out. Cut-off read from the data, not from the text of the source: active = T/C of 150% or more; inactive = T/C below 125%.

Tested on: L1210 leukemia ip in BDF1 mice, survival T/C
Assay: NCI In Vivo Anticancer Drug Screen. Data for tumor model L1210 Leukemia (intraperitoneal) in B6D2F1 (BDF1) mice
Details: endpoint: mean survival time, higher = longer survival
In short: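 Tumor cells were implanted, animals were treated, and survival was followed. The result divides the treated measurement by the vehicle-control measurement.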

[1] = dose: 100.0 mg/kg/injection, schedule: Q01DX009 (ip), vehicle: Klucel (hydroxypropylcellulose) (HPC)
[2] = dose: 200.0 mg/kg/injection, schedule: Q01DX009 (ip), vehicle: Klucel (hydroxypropylcellulose) (HPC)
[3] = dose: 200.0 mg/kg/injection, schedule: Q04DX003 (ip), vehicle: Klucel (hydroxypropylcellulose) (HPC)
[4] = dose: 400.0 mg/kg/injection, schedule: Q01DX009 (ip), vehicle: Klucel (hydroxypropylcellulose) (HPC)
[5] = dose: 400.0 mg/kg/injection, schedule: Q04DX003 (ip), vehicle: Klucel (hydroxypropylcellulose) (HPC)
[6] = dose: 100.0 mg/kg/injection, schedule: Q04DX003 (ip), vehicle: Klucel (hydroxypropylcellulose) (HPC)
[7] = dose: 100.0 mg/kg/injection, schedule: Q04DX003 (ip), vehicle: saline with Tween-80
[8] = dose: 200.0 mg/kg/injection, schedule: Q04DX003 (ip), vehicle: saline with Tween-80

Measured: T/C

O=C(NCCO)Nc1ccc(Cl)c(Cl)c1
inactive: [1] 100 % of control | [2] 103 % of control | [3] 101 % of control | [4] 101 % of control | [5] 87 % of control

COC(=O)[C@H]1[C@H]2C[C@@H]3c4[nH]c5cc(OC)ccc5c4CCN3C[C@H]2C[C@@H](OC(=O)c2cc(OC)c(OC)c(OC)c2)[C@@H]1OC
inactive: dose: 1.0 mg/kg/injection, schedule: Q01DX Z (ip), vehicle: carboxymethylcellulose (CMC) 100 % of control | dose: 1.56 mg/kg/injection, schedule: Q01DX001 (ip), vehicle: other 100 % of control | dose: 1.56 mg/kg/injection, schedule: Q01DX009 (ip), vehicle: saline 111 % of control | dose: 1.56 mg/kg/injection, schedule: Q04DX003 (ip), vehicle: other 95 % of control | dose: 2.0 mg/kg/injection, schedule: Q01DX Z (ip), vehicle: carboxymethylcellulose (CMC) 100 % of control | dose: 3.12 mg/kg/injection, schedule: Q01DX001 (ip), vehicle: other 96 % of control | dose: 3.12 mg/kg/injection, schedule: Q01DX009 (ip), vehicle: saline 109 % of control | dose: 3.12 mg/kg/injection, schedule: Q04DX003 (ip), vehicle: other 95 % of control | dose: 5.0 mg/kg/injection, schedule: Q01DX001 (ip), vehicle: other 92 % of control | dose: 5.25 mg/kg/injection, schedule: Q01DX009 (ip), vehicle: other 98 % of control | dose: 6.25 mg/kg/injection, schedule: Q01DX001 (ip), vehicle: other 96 % of control | dose: 6.25 mg/kg/injection, schedule: Q01DX009 (ip), vehicle: saline 101 % of control | dose: 6.25 mg/kg/injection, schedule: Q04DX003 (ip), vehicle: other 115 % of control | dose: 6.25 mg/kg/injection, schedule: Q04DX003 (ip), vehicle: saline 90 % of control | dose: 9.2 mg/kg/injection, schedule: Q04DX003 (ip), vehicle: other 101 % of control | dose: 10.0 mg/kg/injection, schedule: Q01DX001 (ip), vehicle: other 100 % of control | dose: 12.5 mg/kg/injection, schedule: Q01DX001 (ip), vehicle: carboxymethylcellulose (CMC) 103 % of control | dose: 12.5 mg/kg/injection, schedule: Q01DX009 (ip), vehicle: saline 104 % of control | dose: 12.5 mg/kg/injection, schedule: Q04DX003 (ip), vehicle: saline 108 % of control | dose: 14.0 mg/kg/injection, schedule: Q04DX003 (ip), vehicle: other 88 % of control | dose: 20.0 mg/kg/injection, schedule: Q01DX001 (ip), vehicle: other 97 % of control | dose: 21.0 mg/kg/injection, schedule: Q04DX003 (ip), vehicle: other 95 % of control | dose: 25.0 mg/kg/injection, schedule: Q01DX009 (ip), vehicle: saline 92 % of control | dose: 25.0 mg/kg/injection, schedule: Q04DX003 (ip), vehicle: saline 103 % of control | dose: 40.0 mg/kg/injection, schedule: Q01DX001 (ip), vehicle: other 97 % of control | dose: 80.0 mg/kg/injection, schedule: Q01DX001 (ip), vehicle: other 94 % of control

OC(c1ccccc1)(c1ccccc1)c1ccsc1
inactive: dose: 50.0 mg/kg/injection, schedule: Q01DX009 (ip), vehicle: saline with Tween-80 86 % of control | dose: 100.0 mg/kg/injection, schedule: Q01DX009 (ip), vehicle: saline with Tween-80 86 % of control

CCCCCCCCCC(=O)Nc1cccc(C)c1C
inactive: dose: 100.0 mg/kg/injection, schedule: Q04DX002 (ip), vehicle: Klucel (hydroxypropylcellulose) (HPC) 105 % of control | dose: 200.0 mg/kg/injection, schedule: Q04DX002 (ip), vehicle: Klucel (hydroxypropylcellulose) (HPC) 94 % of control | dose: 400.0 mg/kg/injection, schedule: Q04DX002 (ip), vehicle: Klucel (hydroxypropylcellulose) (HPC) 94 % of control

CC(=O)c1ccc(C(C)=O)c(OCc2ccccc2)c1
inactive: [1] 101 % of control | [6] 103 % of control | [2] 95 % of control | [3] 98 % of control | [4] 92 % of control | [5] 97 % of control

OC1C=C(Br)C2CCC1CC2 (stereo not drawn)
inactive: dose: 100.0 mg/kg/injection, schedule: Q01DX009 (ip), vehicle: other 113 % of control | dose: 100.0 mg/kg/injection, schedule: Q04DX003 (ip), vehicle: other 96 % of control | dose: 200.0 mg/kg/injection, schedule: Q01DX009 (ip), vehicle: other 100 % of control | dose: 200.0 mg/kg/injection, schedule: Q04DX003 (ip), vehicle: other 107 % of control | dose: 400.0 mg/kg/injection, schedule: Q01DX009 (ip), vehicle: other 92 % of control | dose: 400.0 mg/kg/injection, schedule: Q04DX003 (ip), vehicle: other 100 % of control

S=c1nc2[nH]c3ccccc3c2n[nH]1
inactive: [7] 94 % of control | [8] 89 % of control

Cc1ccc(C)c(SC2CCCCC2=O)c1 (stereo not drawn)
inactive: dose: 100.0 mg/kg/injection, schedule: Q01DX001 (ip), vehicle: saline 94 % of control | dose: 200.0 mg/kg/injection, schedule: Q01DX001 (ip), vehicle: saline 101 % of control | dose: 400.0 mg/kg/injection, schedule: Q01DX001 (ip), vehicle: saline 97 % of control

C#C[C@]1(O)CC[C@H]2[C@@H]3CCc4cc(O)ccc4[C@H]3CC[C@@]21C
inactive: dose: 62.5 mg/kg/injection, schedule: Q04DX003 (sc), vehicle: steriod suspending solution 96 % of control | dose: 125.0 mg/kg/injection, schedule: Q04DX003 (sc), vehicle: steriod suspending solution 100 % of control | dose: 250.0 mg/kg/injection, schedule: Q04DX003 (sc), vehicle: steriod suspending solution 97 % of control | dose: 500.0 mg/kg/injection, schedule: Q04DX003 (sc), vehicle: steriod suspending solution 99 % of control

CN(C)c1ccc(/C=N/Nc2ncnc3nc[nH]c23)cc1
inactive: [7] 98 % of control | [8] 96 % of control | dose: 400.0 mg/kg/injection, schedule: Q04DX003 (ip), vehicle: saline with Tween-80 91 % of control

[O-][n+]1ccnc2ccccc21
inactive: dose: 100.0 mg/kg/injection, schedule: Q04DX003 (ip), vehicle: saline 100 % of control | dose: 200.0 mg/kg/injection, schedule: Q04DX003 (ip), vehicle: saline 108 % of control | dose: 400.0 mg/kg/injection, schedule: Q04DX003 (ip), vehicle: saline 110 % of control

Cc1ccc(C(=O)NN2C(N)=NC(N)=NC2(C)C)cc1
inactive: dose: 100.0 mg/kg/injection, schedule: Q01DX009 (ip), vehicle: saline sonified 111 % of control | dose: 200.0 mg/kg/injection, schedule: Q01DX009 (ip), vehicle: saline sonified 92 % of control

Cc1ccccc1N=Nc1c(O)n(-c2ccccc2C)c(=S)n(-c2ccccc2)c1=O
inactive: dose: 75.0 mg/kg/injection, schedule: Q01DX003 (ip), vehicle: Klucel (hydroxypropylcellulose) (HPC) 88 % of control | dose: 150.0 mg/kg/injection, schedule: Q01DX003 (ip), vehicle: Klucel (hydroxypropylcellulose) (HPC) 104 % of control | dose: 300.0 mg/kg/injection, schedule: Q01DX003 (ip), vehicle: Klucel (hydroxypropylcellulose) (HPC) 86 % of control

O=C(O)COc1cccc([N+](=O)[O-])c1
inactive: [1] 96 % of control | [2] 98 % of control | [4] 94 % of control

CC(=O)OC12CCCC(=O)C1C1CC/C=C\CCC12 (stereo not drawn)
inactive: dose: 100.0 mg/kg/injection, schedule: Q01DX001 (ip), vehicle: Klucel (hydroxypropylcellulose) (HPC) 111 % of control | [1] 98 % of control | [6] 95 % of control | dose: 200.0 mg/kg/injection, schedule: Q01DX001 (ip), vehicle: Klucel (hydroxypropylcellulose) (HPC) 108 % of control | [2] 98 % of control | [3] 98 % of control | dose: 400.0 mg/kg/injection, schedule: Q01DX001 (ip), vehicle: Klucel (hydroxypropylcellulose) (HPC) 102 % of control | [4] 96 % of control | [5] 95 % of control

Cc1nccc2c(C)c3c(cc12)c1ccccc1n3CC1CO1 (stereo not drawn)
inactive: dose: 4.69 mg/kg/injection, schedule: Q01DX009 (ip), vehicle: saline with Tween-80 119 % of control | dose: 9.37 mg/kg/injection, schedule: Q04DX003 (ip), vehicle: saline with Tween-80 113 % of control | dose: 18.75 mg/kg/injection, schedule: Q01DX009 (ip), vehicle: saline with Tween-80 124 % of control | dose: 18.75 mg/kg/injection, schedule: Q04DX003 (ip), vehicle: saline with Tween-80 119 % of control | dose: 37.5 mg/kg/injection, schedule: Q01DX009 (ip), vehicle: saline with Tween-80 103 % of control | dose: 37.5 mg/kg/injection, schedule: Q04DX003 (ip), vehicle: saline with Tween-80 122 % of control | dose: 75.0 mg/kg/injection, schedule: Q01DX009 (ip), vehicle: saline with Tween-80 92 % of control | dose: 150.0 mg/kg/injection, schedule: Q04DX003 (ip), vehicle: saline with Tween-80 115 % of control
